PubChem BioAssay (NCI)
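In this assay, cells in 96-well plates receive the compound at five concentrations for 48 hours. Endpoints are linearly interpolated between the surrounding concentrations. Definition used: TGI = concentration required for complete inhibition of growth.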

Columns and labels:
Assay in all cases: NCI tumour cell line growth inhibition, 48 h
786-0 renal = tested on: 786-0 renal
A498 renal = tested on: A498 renal
A549 NSCLC = tested on: A549 NSCLC
ACHN renal = tested on: ACHN renal
BT-549 breast = tested on: BT-549 breast
CAKI-1 renal = tested on: CAKI-1 renal
CCRF-CEM leukemia = tested on: CCRF-CEM leukemia
COLO 205 colon = tested on: COLO 205 colon
DU-145 prostate = tested on: DU-145 prostate
EKVX NSCLC = tested on: EKVX NSCLC
HCC-2998 colon = tested on: HCC-2998 colon
HCT-116 colon = tested on: HCT-116 colon
HCT-15 colon = tested on: HCT-15 colon
HL-60(TB) leukemia = tested on: HL-60(TB) leukemia
HOP-62 NSCLC = tested on: HOP-62 NSCLC
HOP-92 NSCLC = tested on: HOP-92 NSCLC
HS 578T breast = tested on: HS 578T breast
HT29 colon = tested on: HT29 colon
IGROV1 ovarian = tested on: IGROV1 ovarian
K-562 leukemia = tested on: K-562 leukemia
KM12 colon = tested on: KM12 colon
M14 melanoma = tested on: M14 melanoma
MALME-3M melanoma = tested on: MALME-3M melanoma
MCF7 breast = tested on: MCF7 breast
MDA-MB-435 = tested on: MDA-MB-435
MDA-N = tested on: MDA-N
MOLT-4 leukemia = tested on: MOLT-4 leukemia
NCI-H226 lung = tested on: NCI-H226 lung
NCI-H23 lung = tested on: NCI-H23 lung
NCI-H460 lung = tested on: NCI-H460 lung
NCI-H522 lung = tested on: NCI-H522 lung
NCI/ADR-RES ovarian = tested on: NCI/ADR-RES ovarian
OVCAR-3 ovarian = tested on: OVCAR-3 ovarian
OVCAR-4 ovarian = tested on: OVCAR-4 ovarian
OVCAR-5 ovarian = tested on: OVCAR-5 ovarian
OVCAR-8 ovarian = tested on: OVCAR-8 ovarian
PC-3 prostate = tested on: PC-3 prostate
RPMI-8226 leukemia = tested on: RPMI-8226 leukemia
RXF 393 renal = tested on: RXF 393 renal
SF-268 CNS = tested on: SF-268 CNS
SF-295 CNS = tested on: SF-295 CNS
SF-539 CNS = tested on: SF-539 CNS
SK-MEL-2 melanoma = tested on: SK-MEL-2 melanoma
SK-MEL-28 melanoma = tested on: SK-MEL-28 melanoma
SK-MEL-5 melanoma = tested on: SK-MEL-5 melanoma
SK-OV-3 ovarian = tested on: SK-OV-3 ovarian
SN12C renal = tested on: SN12C renal
SNB-19 CNS = tested on: SNB-19 CNS
SNB-75 CNS = tested on: SNB-75 CNS
SR leukemia = tested on: SR leukemia
SW-620 colon = tested on: SW-620 colon
T-47D breast = tested on: T-47D breast
TK-10 renal = tested on: TK-10 renal
U251 CNS = tested on: U251 CNS
UACC-257 melanoma = tested on: UACC-257 melanoma
UACC-62 melanoma = tested on: UACC-62 melanoma
UO-31 renal = tested on: UO-31 renal
LOX IMVI melanoma = tested on: LOX IMVI melanoma
MDA-MB-231 breast = tested on: MDA-MB-231 breast

Structure (SMILES): Cc1cn(C2CC(N)C(CN)O2)c(=O)[nH]c1=O (stereo not drawn)
- TGI (786-0 renal): > 100 µM
- TGI (A498 renal): > 100 µM
- TGI (A549 NSCLC): > 100 µM
- TGI (ACHN renal): > 100 µM
- TGI (BT-549 breast): > 100 µM
- TGI (CAKI-1 renal): > 100 µM
- TGI (CCRF-CEM leukemia): > 100 µM
- TGI (COLO 205 colon): > 100 µM
- TGI (DU-145 prostate): > 100 µM
- TGI (EKVX NSCLC): > 100 µM
- TGI (HCC-2998 colon): > 100 µM
- TGI (HCT-116 colon): > 100 µM
- TGI (HCT-15 colon): > 100 µM
- TGI (HL-60(TB) leukemia): > 100 µM
- TGI (HOP-62 NSCLC): > 100 µM
- TGI (HOP-92 NSCLC): > 100 µM
- TGI (HS 578T breast): > 100 µM
- TGI (HT29 colon): > 100 µM
- TGI (IGROV1 ovarian): > 100 µM
- TGI (K-562 leukemia): > 100 µM
- TGI (KM12 colon): > 100 µM
- TGI (M14 melanoma): > 100 µM
- TGI (MALME-3M melanoma): > 100 µM
- TGI (MCF7 breast): > 100 µM
- TGI (MDA-MB-435): > 100 µM
- TGI (MDA-N): > 100 µM
- TGI (MOLT-4 leukemia): > 100 µM
- TGI (NCI-H226 lung): > 100 µM
- TGI (NCI-H23 lung): > 100 µM
- TGI (NCI-H460 lung): > 100 µM
- TGI (NCI-H522 lung): > 100 µM
- TGI (NCI/ADR-RES ovarian): > 100 µM
- TGI (OVCAR-3 ovarian): > 100 µM
- TGI (OVCAR-4 ovarian): > 100 µM
- TGI (OVCAR-5 ovarian): > 100 µM
- TGI (OVCAR-8 ovarian): > 100 µM
- TGI (PC-3 prostate): > 100 µM
- TGI (RPMI-8226 leukemia): > 100 µM
- TGI (RXF 393 renal): > 100 µM
- TGI (SF-268 CNS): > 100 µM
- TGI (SF-295 CNS): > 100 µM
- TGI (SF-539 CNS): > 100 µM
- TGI (SK-MEL-2 melanoma): > 100 µM
- TGI (SK-MEL-28 melanoma): > 100 µM
- TGI (SK-MEL-5 melanoma): > 100 µM
- TGI (SK-OV-3 ovarian): > 100 µM
- TGI (SN12C renal): > 100 µM
- TGI (SNB-19 CNS): > 100 µM
- TGI (SNB-75 CNS): > 100 µM
- TGI (SR leukemia): > 100 µM
- TGI (SW-620 colon): > 100 µM
- TGI (T-47D breast): > 100 µM
- TGI (TK-10 renal): > 100 µM
- TGI (U251 CNS): > 100 µM
- TGI (UACC-257 melanoma): > 100 µM
- TGI (UACC-62 melanoma): > 100 µM
- TGI (UO-31 renal): > 100 µM

Structure (SMILES): CC(C)=CCN1CC(C)C(=O)Nc2cc(Cl)ccc21 (stereo not drawn)
- TGI (786-0 renal): 39.2 µM
- TGI (A498 renal): > 100 µM
- TGI (A549 NSCLC): > 100 µM
- TGI (ACHN renal): 67.5 µM
- TGI (BT-549 breast): 51.6 µM
- TGI (CAKI-1 renal): 55.5 µM
- TGI (CCRF-CEM leukemia): > 100 µM
- TGI (COLO 205 colon): 41.9 µM
- TGI (DU-145 prostate): > 100 µM
- TGI (EKVX NSCLC): 94.8 µM
- TGI (HCC-2998 colon): 97.6 µM
- TGI (HCT-116 colon): 31.9 µM
- TGI (HCT-15 colon): 80.6 µM
- TGI (HL-60(TB) leukemia): > 100 µM
- TGI (HOP-62 NSCLC): 81.4 µM
- TGI (HOP-92 NSCLC): 29 µM
- TGI (HS 578T breast): > 100 µM
- TGI (HT29 colon): 38.3 µM
- TGI (IGROV1 ovarian): 81.9 µM
- TGI (K-562 leukemia): > 100 µM
- TGI (KM12 colon): 59.8 µM
- TGI (LOX IMVI melanoma): 32.4 µM
- TGI (M14 melanoma): 43.3 µM
- TGI (MALME-3M melanoma): 62.3 µM
- TGI (MCF7 breast): 44.6 µM
- TGI (MDA-MB-231 breast): 50.2 µM
- TGI (MDA-MB-435): 52.1 µM
- TGI (MDA-N): 54.6 µM
- TGI (MOLT-4 leukemia): > 100 µM
- TGI (NCI-H226 lung): 40.6 µM
- TGI (NCI-H23 lung): 85.5 µM
- TGI (NCI-H460 lung): 40.7 µM
- TGI (NCI-H522 lung): 73.3 µM
- TGI (OVCAR-3 ovarian): 32.9 µM
- TGI (OVCAR-4 ovarian): 83.9 µM
- TGI (OVCAR-5 ovarian): > 100 µM
- TGI (OVCAR-8 ovarian): 79.4 µM
- TGI (PC-3 prostate): 47.5 µM
- TGI (RPMI-8226 leukemia): > 100 µM
- TGI (RXF 393 renal): > 100 µM
- TGI (SF-268 CNS): > 100 µM
- TGI (SF-295 CNS): > 100 µM
- TGI (SF-539 CNS): 43 µM
- TGI (SK-MEL-2 melanoma): 31.1 µM
- TGI (SK-MEL-28 melanoma): > 100 µM
- TGI (SK-MEL-5 melanoma): 26.5 µM
- TGI (SK-OV-3 ovarian): 84.4 µM
- TGI (SN12C renal): 33 µM
- TGI (SNB-19 CNS): > 100 µM
- TGI (SR leukemia): > 100 µM
- TGI (SW-620 colon): 67.9 µM
- TGI (T-47D breast): > 100 µM
- TGI (TK-10 renal): 63.8 µM
- TGI (U251 CNS): > 100 µM
- TGI (UACC-257 melanoma): 36 µM
- TGI (UO-31 renal): > 100 µM
